Columns and labels:
Test in all cases: IC50 for competition of protein binding to Kinobeads
Conditions in all cases: assay detail: Kinobeads competition in P. falciparum blood-stage lysate
[1] = target: UniProt A0A144A2H0
[2] = target: UniProt C0H4V4
[3] = target: UniProt C0H516
[4] = target: UniProt C0H5J6
[5] = target: UniProt C6KST5
[6] = target: UniProt C6KSY6
[7] = target: UniProt C6KT19
[8] = target: UniProt O96212
[9] = target: UniProt P61074
[10] = target: UniProt P61076
[11] = target: UniProt Q76NN8
[12] = target: UniProt Q8I231
[13] = target: UniProt Q8I274
[14] = target: UniProt Q8I2A1
[15] = target: UniProt Q8I2X3
[16] = target: UniProt Q8I3J5
[17] = target: UniProt Q8I3T4
[18] = target: UniProt Q8I415
[19] = target: UniProt Q8I463
[20] = target: UniProt Q8I487
[21] = target: UniProt Q8I527
[22] = target: UniProt Q8I5S4
[23] = target: UniProt Q8I5S6
[24] = target: UniProt Q8I5X7
[25] = target: UniProt Q8IAM0
[26] = target: UniProt Q8IAM2
[27] = target: UniProt Q8IBA0
[28] = target: UniProt Q8IBQ6
[29] = target: UniProt Q8IBU2
[30] = target: UniProt Q8ID43
[31] = target: UniProt Q8IDB7
[32] = target: UniProt Q8IDN4
[33] = target: UniProt Q8IDN6
[34] = target: UniProt Q8IDW4
[35] = target: UniProt Q8IE82
[36] = target: UniProt Q8IHP1
[37] = target: UniProt Q8IIF0
[38] = target: UniProt Q8IIL5
[39] = target: UniProt Q8IIM4
[40] = target: UniProt Q8IIU5
[41] = target: UniProt Q8IJN3
[42] = target: UniProt Q8IJR8
[43] = target: UniProt Q8IJR9
[44] = target: UniProt Q8IJX0
[45] = target: UniProt Q8IKI9
[46] = target: UniProt Q8IKN7
[47] = target: UniProt Q8IL53
[48] = target: UniProt Q8ILE8
[49] = target: UniProt Q8ILK2
[50] = target: UniProt Q8IM26
[51] = target: UniProt Q8IM27
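Note: native unpurified kinases from lysate captured on beads bearing immobilized kinase inhibitors, with bead-bound kinases quantified by mass spectrometry across compound doses.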

Sequence of UniProt Q8I2X3 (Q8I2X3 whole entry): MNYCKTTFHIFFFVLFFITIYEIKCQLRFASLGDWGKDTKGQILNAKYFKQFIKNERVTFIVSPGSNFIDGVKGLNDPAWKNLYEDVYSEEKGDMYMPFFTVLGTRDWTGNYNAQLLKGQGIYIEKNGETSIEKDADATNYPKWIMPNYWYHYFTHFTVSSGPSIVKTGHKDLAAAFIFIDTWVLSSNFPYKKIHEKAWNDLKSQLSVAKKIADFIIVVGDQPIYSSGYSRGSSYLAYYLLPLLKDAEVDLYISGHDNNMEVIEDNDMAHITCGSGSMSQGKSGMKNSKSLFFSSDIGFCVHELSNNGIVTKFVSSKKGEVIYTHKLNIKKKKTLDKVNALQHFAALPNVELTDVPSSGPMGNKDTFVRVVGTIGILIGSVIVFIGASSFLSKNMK
Sequence of UniProt Q8IDN4 (Q8IDN4 whole entry): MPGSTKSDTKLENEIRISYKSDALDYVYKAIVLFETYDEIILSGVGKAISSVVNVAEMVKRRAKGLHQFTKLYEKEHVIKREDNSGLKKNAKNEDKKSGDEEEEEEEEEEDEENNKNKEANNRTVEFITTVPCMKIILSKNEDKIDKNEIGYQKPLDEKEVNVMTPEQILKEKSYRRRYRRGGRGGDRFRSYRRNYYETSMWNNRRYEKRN
Sequence of UniProt P61076 (P61076 whole entry): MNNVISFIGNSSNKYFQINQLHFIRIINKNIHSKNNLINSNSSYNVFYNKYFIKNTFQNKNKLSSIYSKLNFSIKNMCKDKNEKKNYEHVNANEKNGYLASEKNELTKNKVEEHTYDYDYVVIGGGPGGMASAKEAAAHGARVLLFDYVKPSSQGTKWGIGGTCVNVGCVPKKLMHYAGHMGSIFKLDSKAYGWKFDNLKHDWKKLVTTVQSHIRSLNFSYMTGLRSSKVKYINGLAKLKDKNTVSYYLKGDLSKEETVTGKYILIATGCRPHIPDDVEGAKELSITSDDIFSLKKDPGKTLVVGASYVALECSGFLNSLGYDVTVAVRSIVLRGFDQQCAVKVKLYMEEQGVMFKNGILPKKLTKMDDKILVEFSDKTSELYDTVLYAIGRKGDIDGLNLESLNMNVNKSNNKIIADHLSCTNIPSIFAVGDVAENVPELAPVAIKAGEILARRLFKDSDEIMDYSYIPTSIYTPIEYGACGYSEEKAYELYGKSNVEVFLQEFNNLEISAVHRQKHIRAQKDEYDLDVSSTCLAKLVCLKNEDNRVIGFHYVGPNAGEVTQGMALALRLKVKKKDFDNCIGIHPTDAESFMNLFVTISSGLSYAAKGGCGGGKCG
Sequence of UniProt P61074 (P61074 whole entry): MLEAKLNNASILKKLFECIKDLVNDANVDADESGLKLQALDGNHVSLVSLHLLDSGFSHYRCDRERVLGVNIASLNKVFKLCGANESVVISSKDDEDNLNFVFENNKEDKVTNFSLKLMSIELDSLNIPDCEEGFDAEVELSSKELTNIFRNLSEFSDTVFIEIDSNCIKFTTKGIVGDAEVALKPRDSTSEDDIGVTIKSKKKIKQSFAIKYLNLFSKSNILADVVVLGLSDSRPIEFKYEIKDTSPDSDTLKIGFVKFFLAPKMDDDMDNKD
Sequence of UniProt A0A144A2H0 (A0A144A2H0 whole entry): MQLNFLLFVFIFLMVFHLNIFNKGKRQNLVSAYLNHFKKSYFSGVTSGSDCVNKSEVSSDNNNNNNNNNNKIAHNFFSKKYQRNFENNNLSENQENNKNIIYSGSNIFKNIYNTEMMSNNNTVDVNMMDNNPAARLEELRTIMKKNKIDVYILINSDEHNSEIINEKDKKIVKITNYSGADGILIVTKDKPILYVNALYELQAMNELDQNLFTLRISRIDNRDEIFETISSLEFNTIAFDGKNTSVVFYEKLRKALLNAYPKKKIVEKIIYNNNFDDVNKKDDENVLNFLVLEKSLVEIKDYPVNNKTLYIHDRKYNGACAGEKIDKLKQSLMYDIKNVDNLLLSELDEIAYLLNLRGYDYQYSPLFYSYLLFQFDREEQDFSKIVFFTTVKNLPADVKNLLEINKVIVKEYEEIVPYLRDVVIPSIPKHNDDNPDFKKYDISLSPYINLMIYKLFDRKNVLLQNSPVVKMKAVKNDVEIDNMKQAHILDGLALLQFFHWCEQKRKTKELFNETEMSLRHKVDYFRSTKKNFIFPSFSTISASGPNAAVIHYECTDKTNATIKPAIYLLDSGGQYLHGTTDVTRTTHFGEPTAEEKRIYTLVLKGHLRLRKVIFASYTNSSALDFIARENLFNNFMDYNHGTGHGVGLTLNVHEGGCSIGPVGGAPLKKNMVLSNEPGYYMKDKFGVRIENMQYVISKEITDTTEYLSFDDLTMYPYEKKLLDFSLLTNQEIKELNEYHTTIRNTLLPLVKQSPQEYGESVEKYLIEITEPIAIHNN
Sequence of UniProt Q8IJR9 (Q8IJR9 whole entry): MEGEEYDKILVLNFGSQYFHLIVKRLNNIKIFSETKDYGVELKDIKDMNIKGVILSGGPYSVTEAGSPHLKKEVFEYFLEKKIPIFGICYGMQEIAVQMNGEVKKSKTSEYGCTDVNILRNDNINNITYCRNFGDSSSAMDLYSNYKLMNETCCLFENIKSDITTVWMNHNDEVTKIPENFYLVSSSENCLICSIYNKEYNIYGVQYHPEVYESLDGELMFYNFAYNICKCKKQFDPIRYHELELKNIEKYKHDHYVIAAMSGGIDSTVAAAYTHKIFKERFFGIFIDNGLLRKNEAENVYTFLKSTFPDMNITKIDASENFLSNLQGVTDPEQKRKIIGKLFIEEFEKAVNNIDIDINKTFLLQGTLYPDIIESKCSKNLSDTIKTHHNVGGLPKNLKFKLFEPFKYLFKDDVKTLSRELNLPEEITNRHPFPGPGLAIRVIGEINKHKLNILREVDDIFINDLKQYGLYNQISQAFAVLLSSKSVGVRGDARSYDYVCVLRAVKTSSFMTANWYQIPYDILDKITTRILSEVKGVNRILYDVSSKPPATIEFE

With `O=c1[nH]c2ccc(Cl)cc2c(NC2CN3CCC2CC3)c1-c1nc2ccccc2[nH]1` (stereo unspecified) [CHIR-124] as the compound, how does the IC50 [1] read?
The IC50 was greater than 20 µM.

What about the IC50 [2] of the same compound?
Its IC50 is greater than 20 µM.

What about the IC50 [3] of the same compound?
The IC50 was greater than 20 µM.

What about the IC50 [4] of the same compound?
The IC50 was greater than 20 µM.

What about the IC50 [5] of the same compound?
The IC50 was greater than 20 µM.

What about the IC50 [6] of the same compound?
The IC50 was greater than 20 µM.

What about the IC50 [7] of the same compound?
The IC50 was greater than 20 µM.

What about the IC50 [8] of the same compound?
The IC50 was greater than 20 µM.

What about the IC50 [9] of the same compound?
The IC50 was greater than 20 µM.

What about the IC50 [10] of the same compound?
The IC50 was greater than 20 µM.

And the IC50 [11]?
The IC50 was greater than 20 µM.

What about the IC50 [12] of the same compound?
Its IC50 is greater than 20 µM.

And the IC50 [13]?
The IC50 was greater than 20 µM.

What about the IC50 [14] of the same compound?
The IC50 was greater than 20 µM.

What about the IC50 [15] of the same compound?
The IC50 was greater than 20 µM.

And the IC50 [16]?
The IC50 was greater than 20 µM.

And the IC50 [17]?
Its IC50 is greater than 20 µM.

And the IC50 [18]?
Its IC50 is greater than 20 µM.

And the IC50 [19]?
The IC50 was greater than 20 µM.

What about the IC50 [20] of the same compound?
Its IC50 is greater than 20 µM.

What about the IC50 [21] of the same compound?
Its IC50 is greater than 20 µM.

And the IC50 [22]?
The IC50 was greater than 20 µM.

What about the IC50 [23] of the same compound?
Its IC50 is greater than 20 µM.

And the IC50 [24]?
Its IC50 is greater than 20 µM.

What about the IC50 [25] of the same compound?
Its IC50 is greater than 20 µM.

What about the IC50 [26] of the same compound?
The IC50 was greater than 20 µM.

What about the IC50 [27] of the same compound?
The IC50 was greater than 20 µM.

And the IC50 [28]?
Its IC50 is greater than 20 µM.

And the IC50 [29]?
The IC50 was greater than 20 µM.

And the IC50 [30]?
Its IC50 is greater than 20 µM.

What about the IC50 [31] of the same compound?
Its IC50 is greater than 20 µM.

And the IC50 [32]?
Its IC50 is greater than 20 µM.

And the IC50 [33]?
Its IC50 is greater than 20 µM.

What about the IC50 [34] of the same compound?
Its IC50 is greater than 20 µM.

And the IC50 [35]?
Its IC50 is greater than 20 µM.

And the IC50 [36]?
Its IC50 is greater than 20 µM.

And the IC50 [37]?
The IC50 was greater than 20 µM.

And the IC50 [38]?
Its IC50 is greater than 20 µM.

What about the IC50 [39] of the same compound?
The IC50 was greater than 20 µM.

And the IC50 [40]?
The IC50 was greater than 20 µM.

What about the IC50 [41] of the same compound?
Its IC50 is greater than 20 µM.

What about the IC50 [42] of the same compound?
Its IC50 is 0.649 µM.

What about the IC50 [43] of the same compound?
Its IC50 is greater than 20 µM.

What about the IC50 [44] of the same compound?
Its IC50 is greater than 20 µM.

And the IC50 [45]?
Its IC50 is greater than 20 µM.

And the IC50 [46]?
The IC50 was greater than 20 µM.

What about the IC50 [47] of the same compound?
The IC50 was greater than 20 µM.

And the IC50 [48]?
Its IC50 is greater than 20 µM.

What about the IC50 [49] of the same compound?
The IC50 was greater than 20 µM.

And the IC50 [50]?
The IC50 was greater than 20 µM.

And the IC50 [51]?
Its IC50 is greater than 20 µM.
